Results reported in PubChem BioAssay AID248 (DTP/NCI, 2004).
Where “and” joins values, the source holds several entries; their conditions need not be identical. Identical values can stand only once. Inconclusive results and toxic doses are left out. Rule as the data show it: active = T/C of 150% or more; inactive = T/C below 125%.

Test system: L1210 leukemia ip in BDF1 mice, survival T/C
Test: NCI In Vivo Anticancer Drug Screen. Data for tumor model L1210 Leukemia (intraperitoneal) in B6D2F1 (BDF1) mice
Conditions: endpoint: mean survival time, higher = longer survival
Method in brief: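 Read-out is survival time, reported as the treated-group measurement over the vehicle-control measurement.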

[1] = dose: 100.0 mg/kg/injection, schedule: Q04DX002 (ip), vehicle: saline with Tween-80
[2] = dose: 100.0 mg/kg/injection, schedule: Q01DX001 (ip), vehicle: Klucel (hydroxypropylcellulose) (HPC)
[3] = dose: 200.0 mg/kg/injection, schedule: Q01DX001 (ip), vehicle: Klucel (hydroxypropylcellulose) (HPC)
[4] = dose: 400.0 mg/kg/injection, schedule: Q01DX001 (ip), vehicle: Klucel (hydroxypropylcellulose) (HPC)

Measured: T/C

CCC[CH2][Sn]1([CH2]CCC)[O]C(=O)C[S]1
inactive: dose: 0.78 mg/kg/injection, schedule: Q04DX003 (ip), vehicle: saline 105 % of control | dose: 1.5 mg/kg/injection, schedule: Q01DX Z (ip), vehicle: saline 97 % of control | dose: 1.56 mg/kg/injection, schedule: Q01DX001 (ip), vehicle: acetone 96 % of control | dose: 1.56 mg/kg/injection, schedule: Q04DX003 (ip), vehicle: saline 109 % of control | dose: 2.5 mg/kg/injection, schedule: Q01DX009 (ip), vehicle: acetone 105 % of control | dose: 3.0 mg/kg/injection, schedule: Q01DX Z (ip), vehicle: saline 106 % of control | dose: 3.12 mg/kg/injection, schedule: Q01DX001 (ip), vehicle: acetone 104 % of control | dose: 3.12 mg/kg/injection, schedule: Q04DX003 (ip), vehicle: saline 109 % of control | dose: 4.6 mg/kg/injection, schedule: Q04DX003 (ip), vehicle: saline 107 % of control | dose: 6.0 mg/kg/injection, schedule: Q01DX Z (ip), vehicle: saline 90 % of control | dose: 6.25 mg/kg/injection, schedule: Q01DX001 (ip), vehicle: acetone 105 % of control | dose: 6.25 mg/kg/injection, schedule: Q04DX002 (ip), vehicle: saline with Tween-80 101 % of control | dose: 7.0 mg/kg/injection, schedule: Q04DX003 (ip), vehicle: saline 97 % of control | dose: 10.0 mg/kg/injection, schedule: Q04DX003 (ip), vehicle: saline 108 % of control | dose: 12.5 mg/kg/injection, schedule: Q04DX002 (ip), vehicle: saline with Tween-80 96 % of control | [1] 106 % of control

CC1CCN(C(=O)Nc2ccccc2)CC1
inactive: dose: 100.0 mg/kg/injection, schedule: Q04DX002 (ip), vehicle: Klucel (hydroxypropylcellulose) (HPC) 98 % of control | dose: 200.0 mg/kg/injection, schedule: Q04DX002 (ip), vehicle: Klucel (hydroxypropylcellulose) (HPC) 117 % of control | dose: 400.0 mg/kg/injection, schedule: Q04DX002 (ip), vehicle: Klucel (hydroxypropylcellulose) (HPC) 103 % of control

O=C(CC(O)(c1ccccc1)c1ccccc1)Nc1ccccn1
inactive: dose: 100.0 mg/kg/injection, schedule: Q01DX001 (ip), vehicle: other 89 % of control | dose: 200.0 mg/kg/injection, schedule: Q01DX001 (ip), vehicle: other 89 % of control

Cc1cc(NC(=O)CCc2ccc(N3C(N)=NC(N)=NC3(C)C)cc2)ccc1S(=O)(=O)F
inactive: dose: 4.0 mg/kg/injection, schedule: Q03HX024 (ip), vehicle: other 104 % of control | dose: 7.82 mg/kg/injection, schedule: Q12HX018 (ip), vehicle: acetone 106 % of control | dose: 8.0 mg/kg/injection, schedule: Q03HX008 (ip), vehicle: other 117 % of control | dose: 8.0 mg/kg/injection, schedule: Q03HX024 (ip), vehicle: other 114 % of control | dose: 15.62 mg/kg/injection, schedule: Q12HX018 (ip), vehicle: acetone 105 % of control | dose: 16.0 mg/kg/injection, schedule: Q01DX009 (ip), vehicle: other 112 % of control | dose: 16.0 mg/kg/injection, schedule: Q03HX008 (ip), vehicle: other 104 % of control | dose: 16.0 mg/kg/injection, schedule: Q03HX024 (ip), vehicle: other 114 % of control | dose: 18.0 mg/kg/injection, schedule: Q## X018 (ip), vehicle: saline 118 % of control | dose: 25.0 mg/kg/injection, schedule: Q01DX001 (ip), vehicle: Klucel (hydroxypropylcellulose) (HPC) 103 % of control | dose: 31.25 mg/kg/injection, schedule: Q12HX018 (ip), vehicle: acetone 113 % of control | dose: 32.0 mg/kg/injection, schedule: Q01DX009 (ip), vehicle: other 120 % of control | dose: 32.0 mg/kg/injection, schedule: Q03HX008 (ip), vehicle: other 109 % of control | dose: 32.0 mg/kg/injection, schedule: Q03HX024 (ip), vehicle: other 117 % of control | dose: 32.0 mg/kg/injection, schedule: Q04DX003 (ip), vehicle: other 109 % of control | dose: 50.0 mg/kg/injection, schedule: Q01DX001 (ip), vehicle: Klucel (hydroxypropylcellulose) (HPC) 105 % of control | dose: 64.0 mg/kg/injection, schedule: Q01DX001 (ip), vehicle: other 95 % of control | dose: 64.0 mg/kg/injection, schedule: Q01DX009 (ip), vehicle: other 117 % of control | dose: 64.0 mg/kg/injection, schedule: Q03HX008 (ip), vehicle: other 111 % of control | dose: 64.0 mg/kg/injection, schedule: Q04DX003 (ip), vehicle: other 104 % of control | [2] 101 % of control and 92 % of control | [3] 92 % of control | [4] 92 % of control

O=C(O)c1ccc(N2C(=O)c3ccccc3C2=O)cc1[N+](=O)[O-]
inactive: dose: 100.0 mg/kg/injection, schedule: Q01DX009 (ip), vehicle: saline 103 % of control | dose: 100.0 mg/kg/injection, schedule: Q04DX003 (ip), vehicle: saline 100 % of control | dose: 200.0 mg/kg/injection, schedule: Q01DX009 (ip), vehicle: saline 108 % of control | dose: 200.0 mg/kg/injection, schedule: Q04DX003 (ip), vehicle: saline 104 % of control | dose: 400.0 mg/kg/injection, schedule: Q01DX009 (ip), vehicle: saline 107 % of control | dose: 400.0 mg/kg/injection, schedule: Q04DX003 (ip), vehicle: saline 107 % of control

CC(C)CC(N)C(=O)NNc1ccccc1 (stereo not drawn)
inactive: dose: 75.0 mg/kg/injection, schedule: Q01DX001 (ip), vehicle: saline 101 % of control | dose: 150.0 mg/kg/injection, schedule: Q01DX001 (ip), vehicle: saline 103 % of control | dose: 300.0 mg/kg/injection, schedule: Q01DX001 (ip), vehicle: saline 108 % of control

CCOC(=O)/C=C(\N)c1ccccc1
inactive: [1] 102 % of control | dose: 200.0 mg/kg/injection, schedule: Q04DX002 (ip), vehicle: saline with Tween-80 108 % of control | dose: 400.0 mg/kg/injection, schedule: Q04DX002 (ip), vehicle: saline with Tween-80 91 % of control

CNc1nc(=O)n(C2CCCO2)cc1C (stereo not drawn)
inactive: dose: 100.0 mg/kg/injection, schedule: Q01DX001 (ip), vehicle: saline 90 % of control | dose: 200.0 mg/kg/injection, schedule: Q01DX001 (ip), vehicle: saline 98 % of control | dose: 400.0 mg/kg/injection, schedule: Q01DX001 (ip), vehicle: saline 95 % of control

CCC(=CCC1=C(O)c2ccccc2C(=O)C1=O)CC
inactive: dose: 25.0 mg/kg/injection, schedule: Q01DX009 (ip), vehicle: water 120 % of control | dose: 50.0 mg/kg/injection, schedule: Q01DX009 (ip), vehicle: water 97 % of control | dose: 100.0 mg/kg/injection, schedule: Q01DX001 (ip), vehicle: water 103 % of control | dose: 100.0 mg/kg/injection, schedule: Q01DX009 (ip), vehicle: water 100 % of control | dose: 200.0 mg/kg/injection, schedule: Q01DX009 (ip), vehicle: water 94 % of control

CCCCCCCCC[n+]1cccc(C(N)=O)c1
inactive: dose: 100.0 mg/kg/injection, schedule: Q04DX003 (ip), vehicle: saline with Tween-80 106 % of control

Nc1cc2c(cc1[N+](=O)[O-])-c1ccc([N+](=O)[O-])cc1C2=O
inactive: dose: 50.0 mg/kg/injection, schedule: Q01DX001 (ip), vehicle: carboxymethylcellulose (CMC) 98 % of control | dose: 100.0 mg/kg/injection, schedule: Q01DX001 (ip), vehicle: carboxymethylcellulose (CMC) 113 % of control | dose: 200.0 mg/kg/injection, schedule: Q01DX001 (ip), vehicle: carboxymethylcellulose (CMC) 98 % of control | dose: 400.0 mg/kg/injection, schedule: Q01DX001 (ip), vehicle: carboxymethylcellulose (CMC) 109 % of control

O=C1C(Cl)=C(Nc2ccccc2)C(=O)c2ccccc21
inactive: dose: 100.0 mg/kg/injection, schedule: Q04DX003 (ip), vehicle: Klucel (hydroxypropylcellulose) (HPC) 101 % of control | dose: 200.0 mg/kg/injection, schedule: Q04DX003 (ip), vehicle: Klucel (hydroxypropylcellulose) (HPC) 101 % of control | dose: 400.0 mg/kg/injection, schedule: Q04DX003 (ip), vehicle: Klucel (hydroxypropylcellulose) (HPC) 102 % of control

CC(C)Cc1c(N)nc(=O)[nH]c1C(=O)O
inactive: dose: 75.0 mg/kg/injection, schedule: Q01DX009 (ip), vehicle: Klucel (hydroxypropylcellulose) (HPC) 95 % of control | [2] 96 % of control | dose: 150.0 mg/kg/injection, schedule: Q01DX009 (ip), vehicle: Klucel (hydroxypropylcellulose) (HPC) 98 % of control | [3] 100 % of control | dose: 300.0 mg/kg/injection, schedule: Q01DX009 (ip), vehicle: Klucel (hydroxypropylcellulose) (HPC) 101 % of control | [4] 100 % of control
